# pKd: −log10 of the molar value.
# Columns and labels:
# [1] = LC-MS analysis of original compound DMSO stock; assay type: physicochemical; settings: negative mode LC-MS
# Excerpt: By measuring the R2 values of fragments with and without protein present in the sample, a strong indication of the extent of protein binding can be obtained. […] This increase in R2 was reversed upon addition of the TIN2TBM competitor. […] Nevertheless, given the strong binding activity of the fragment derivative 27 in the CPMG assay, a pure stock of 27 was synthesised and put forward for further characterisation using a quantitative LO-NMR assay to determine the dissociation constant.
# Supplementary Figure 3: Negative mode LC-MS analysis of compound 25. The LC-UV
# This value aligned with the molecular weight of compound 27 (251 g mol-1), conﬁrming that
# (1 picture or pasted object on this page, not shown here)
# [2] = target: TRF1TRFH; parameters: method as in PMID 18202258; settings: ITC; read-out: dissociation constant of TIN2TBM for TRF1TRFH; cited from earlier work
Molecule,stability in original screening DMSO stock [1],pKd [2]
CCOc1ccc(S(=O)(=O)n2ccnc2)c2ccccc12 [Compound 25],degraded into compound 27,–
Ac-RHFNLAPLGRRRVQSQWASTR-CONH2 (Ac-RHFNLAPLGRRRVQSQWASTR-NH2) [TIN2TBM],–,6.52

# Source: paper PMC12635197, “Discovery of first-in-class inhibitors of the TRF1:TIN2 protein:protein interaction by fragment screening” (Scientific Reports, 2025)
